Where a name gives a salt, the structure may show the parent alone. Read-outs that look alike come from different tables or passages of the source.
Experiments:
[1] = Clinical study: bupivacaine plasma pharmacokinetics after sponge implantation; format: in vivo, human
Description: Patients received three 5 cm×5 cm (×0.5 cm thick) sponges; one sponge divided between areas adjacent the surgical site (in this case, adjacent the location of the now-removed uterus), one sponge divided and placed across the incision in the wall of the body cavity (in this case, the peritoneum) and the final sponge divided and placed between the sheath and skin around the incision. Each sponge contained 50 mg of bupivacaine hydrochloride, giving a total dose of 150 mg per patient.
The patients were scheduled to receive a hysterectomy in the absence of uterine adenocarcinoma, cervical cancer, leiomyosarcoma or the suspicion of these cancers.

plasma proteins = details: cited from earlier work
[2] = neonates; cited from earlier work
[3] = in vivo; cited from earlier work
hysterectomy patients [4] = details: cited from earlier work; for average postoperative morphine consumption: infiltration in deep and superficial layers of the wound after abdominal hysterectomy
[5] = system: Caesarian section patients; details: […] or 0.5%, 20 ml, cited from earlier work
hysterectomy patients [6] = details: cited from earlier work
[7] = mean, n=11, three sponges, 150 mg

CCCCN1CCCCC1C(=O)Nc1c(C)cccc1C (stereo not drawn) [Bupivacaine Hydrochloride]
tlag ([1]; efficacy population n=12, three sponges, 150 mg bupivacaine HCl, column head Mean, marked *): 0.000 h | Cmax ([1]; female, human, 150 mg, mean, n=12, three sponges, 150 mg bupivacaine HCl, read-out: Cmax): 225 ng/mL | AUC(0-inf) ([1]; female, human, mean, n=11, three sponges, 150 mg): 6360 ng·h/mL | AUC(0-t) ([1]; female, human, mean, n=12, three sponges, 150 mg): 6530 ng·h/mL | Tmax ([1]; female, human, n=12, three sponges, 150 mg, column head Mean, marked *): 12 h | t1/2z [1, 7]: 10.092 h | λz [1, 7]: 0.07084 h⁻¹

CCCCN1CCCCC1C(=O)Nc1c(C)cccc1C (stereo not drawn) [bupivacaine, Bupivacaine]
Cmax ([1]; female, human, 150 mg, after implantation of three bupivacaine-collagen sponges, 150 mg, read-out: highest individual Cmax): 440 ng/mL | Cmax ([1]; female, human, 150 mg, after implantation of three bupivacaine-collagen sponges, 150 mg, read-out: mean Cmax): 220 ng/mL | bound to plasma proteins (plasma proteins): about 95% | Reported half-lives [2]: about 8 hours | known systemic toxicity level [3]: 2 to 4 µg/mL | reduction in analgesic consumption (hysterectomy patients [4]; […] solution 45 ml infiltrated subfascially and subcutaneously, Hannibal): 50% | average postoperative morphine consumption (hysterectomy patients [4]; Klein et al 2000): 54 mg | average postoperative morphine consumption (hysterectomy patients [4]; Ng et al 2002): 44 mg | analgesia compared with no treatment (hysterectomy patients [4]; subcutaneous infiltration of solution, Cobby 1997, Victory 1995): no improvement in analgesia | duration of the effect on analgesic consumption ([5]; Caesarian section): 4 h | reduction in analgesic consumption ([5]; three studies on Caesarian section): 20-50%

CCCCN1CCCC[C@H]1C(=O)Nc1c(C)cccc1C [levobupivacaine]
incisional pain, deep pain and pain on coughing versus normal saline (hysterectomy patients [6]; […] infusion 12.5 mg/hr over 24 hours, 1-2 hours post surgery): significant reduction | Total ketobemidone (PCA narcotic) (hysterectomy patients [6]; […] infusion 12.5 mg/hr, 4-24 hour period): significantly reduced

CCN(CC)CC(=O)Nc1c(C)cccc1C [lidocaine]
reduction in pain scores and supplementary analgesic consumption (hysterectomy patients [4]; 500 mg aerosol subcutaneously, first 24 hours, Sinclair et al 1996): approximately 50%
